Type in all cases: in vivo, mouse
Test [1] relates to C57BL/6 mice. Briefly: Single-dose G108 EE and plasma amino acid study in metabolic cages. Particulars: for plasma total amino acids after a single injection / energy expenditure after a single injection: mice on SP diet. The method, then:
Lean 10-week-old C57BL/6 mice (N = 20) were provided ad libitum a 60 kcal% high fat diet (diet D12492, Table S2) for 10 days. They were then switched to either a standard protein high fat diet (D08091803) or a high protein high fat diet (D08091801) (N = 10/group) for 1 week prior to commencing the study. All mice were then placed into metabolic cages, individually housed, and allowed to acclimatise for 24 h. On day 2, baseline metabolic readings were obtained prior to single dose administration of 7.5 nmol/kg G108 on day 3 at 9 am. Metabolic readings were subsequently obtained over the following 48 h prior to single dose administration of 20 nmol/kg G108 on day 5. On day 8, all mice were removed from the metabolic cages and returned to their home cages. A parallel study was then carried out whereby venous blood samples were collected at baseline and daily following single dosing with either 7.5 nmol/kg or 20 nmol/kg G018. Blood samples were transferred on ice immediately for centrifugation as previously described. Samples were stored at −80°C prior to measurement of plasma total amino acids.
To measure energy expenditure, DIO mice were placed into a Comprehensive Laboratory Animal Monitoring System (CLAMS, Columbus instruments, Columbus, US). Measurement of oxygen consumption and carbon dioxide production was taken at 20 min intervals. Food intake was also measured electronically without the need to remove food. Each cohort of mice were placed into the CLAMS system with daily weighing of body weight prior to administration of the allocated treatment at 9 am. Following administration of treatment, mice were placed back into the metabolic cages with ad libitum access to their allocated diet. For studies with the low amino acid (LAA) diet in metabolic cages, animals were not removed from the metabolic cages until the end of the experiment and had ad libitum access to either standard protein or low amino acid diets. Feed efficiency was calculated as mg body weight change per kJ consumed.
Plasma total amino acids were measured using fluorometric-based ELISA kits as described (MAK002, Sigma-Aldrich, Ab65347, Abcam). Plasma FGF21 was measured using a fluorescent based ELISA kit (ab229382, Abcam). Plasma triglyceride, cholesterol and leptin were measured using ELISA kits (ab65336, ab65390, ab199082, Abcam). Individual amino acids were measured using Gas Chromatography/Mass Spectrometry (WellChild laboratory, Evelina Children’s Hospital, St Thomas’s Hospital, London).

Test [2] concerns lean C57BL/6 mice. Briefly: 18-day dose-finding study of food intake in lean mice. The method, then:
C57BL/6 mice matched for weight and age (14-week-old, N = 24) were administered via subcutaneous injection at 9 am daily for 18 days, vehicle control or G108 diluted in sterile HPLC water. Ascending doses of either 5 nmol/kg, 10 nmol/kg or 20 nmol/kg G018 were administered. All mice had ad libitum access to RM1 diet (Special Diet Services, UK) and water. Food intake and body weights were recorded daily.
Food intake was measured daily using a dedicated weighing scale and topped up accordingly. Body weight was recorded at 9 am daily or every 48 h using the same weighing scale. Body composition was measured using an EchoMRI analyser at various timepoints during chronic studies. Body composition measurements were taken on the same time of day to reduce intra-animal variability. Animals were placed in a transparent cylindrical Perspex tube and both ends secured with Perspex clips. The tubes containing the animal was then carefully placed into the MRI machine (EchoMRI −100H analyser, EchoMRI). Each scan lasted approximately 90 s where lean mass and fat mass were recorded in grams. Following the scan, the mice were removed from the Perspex tube and returned to their respective cages.

The subject of test [3] is diet-induced obese (DIO) C57BL/6 mice. Kind of test: Total amino acid supplementation in G108-treated DIO mice. The conditions noted are these: n = 8/group. The text has this: Lean 10-week-old C57BL/6 mice (N = 32) were provided ad libitum a 60 kcal% high fat diet (diet D12492, Table S2) ad libitum for 8 weeks. Half of the animals were then provided with a high fat standard protein diet (D08091803, Table S2) or a high fat standard protein diet supplemented with additional total amino acids (SP + TAA diet, Formula 1, Table S3). From each diet group, animals were allocated to receive either 7.5 nmol/kg G108 or vehicle control (N = 8/group). The subsequent four treatment groups were as follows: Vehicle/SP diet, G108/SP diet, Vehicle/SP + TAA diet, G108/SP + TAA diet. Food intake and body weight was recorded every 48 h during the study. Baseline body composition analysis (EchoMRI) was carried out in addition body composition analysis on day 18. […]
To measure energy expenditure, DIO mice were placed into a Comprehensive Laboratory Animal Monitoring System (CLAMS, Columbus instruments, Columbus, US). […] Food intake was also measured electronically without the need to remove food. […] Feed efficiency was calculated as mg body weight change per kJ consumed.
Plasma total amino acids were measured using fluorometric-based ELISA kits as described (MAK002, Sigma-Aldrich, Ab65347, Abcam). Plasma FGF21 was measured using a fluorescent based ELISA kit (ab229382, Abcam). Plasma triglyceride, cholesterol and leptin were measured using ELISA kits (ab65336, ab65390, ab199082, Abcam). […]

Starred links: 1 amine or outer side, 2 acyl side, 3 side chain; linkers in the order of their positions; H or OH if unused. Non-standard residues stand in square brackets, D forms with d. Residues, ends and D or L forms follow the SMILES beside them. Groups on a side chain read outwards from the residue. *: point of attachment. C18 diacid = O=C(O)CCCCCCCCCCCCCCCCC(=O)*; γGlu = O=C(O)[C@H](CCC(=O)[*:2])N[*:1]; Aib = CC(C)(N)C(=O)O

`CC[C@H](C)[C@H](NC(=O)[C@H](Cc1ccccc1)NC(=O)[C@H](CCC(=O)O)NC(=O)[C@H](CCC(N)=O)NC(=O)[C@H](C)NC(=O)[C@H](CCCNC(=N)N)NC(=O)[C@H](CCCCN)NC(=O)[C@H](C)NC(=O)[C@H](CC(=O)O)NC(=O)[C@H](CC(C)C)NC(=O)[C@H](Cc1ccc(O)cc1)NC(=O)[C@H](CCCNC(=N)N)NC(=O)[C@H](CO)NC(=O)[C@H](Cc1ccc(O)cc1)NC(=O)[C@H](CC(=O)O)NC(=O)[C@H](CO)NC(=O)[C@@H](NC(=O)[C@H](Cc1ccccc1)NC(=O)[C@@H](NC(=O)CNC(=O)[C@H](Cc1c[nH]cn1)NC(=O)C(C)(C)NC(=O)[C@@H](N)Cc1c[nH]cn1)[C@@H](C)O)[C@@H](C)O)C(=O)N[C@@H](CCC(=O)O)C(=O)N[C@@H](Cc1c[nH]c2ccccc12)C(=O)N[C@@H](CC(C)C)C(=O)N[C@@H](CC(C)C)C(=O)N[C@@H](CCC(N)=O)C(=O)N[C@@H](CO)C(=O)N[C@@H](Cc1c[nH]cn1)C(=O)N[C@@H](Cc1c[nH]cn1)C(=O)N[C@@H](CCC(N)=O)C(=O)N[C@@H](Cc1c[nH]cn1)C(=O)N[C@@H](Cc1c[nH]cn1)C(=O)N1CCC[C@H]1C(=O)N[C@@H](CO)C(=O)N1CCC[C@H]1C(=O)N1CCC[C@H]1C(=O)N1CCC[C@H]1C(=O)N[C@@H](CCCCNC(=O)[C@H](CC(N)=O)NC(=O)CC[C@H](NC(=O)CCCCCCCCCCCCCCCCC(=O)O)C(=O)O)C(N)=O` [Peptide G108] (H-H[Aib]HGTFTSDYSRYLDAKRAQEFIEWLLQSHHQHHPSPPPK([Asn-γGlu-C18 diacid])-NH2; N-terminus and C-terminus assumed): the “plasma total amino acids after a single injection” value in test [1] (single 7.5 nmol/kg dose, n = 10/group) is on record as “transient reduction in plasma amino acids”; in test [1] (single 20 nmol/kg dose, n = 9-10/group), “sustained reduction in plasma amino acids”. In addition, the “energy expenditure after a single injection” value in test [1] (single 7.5 nmol/kg dose, up to 48 h, n = 10/group) is reported as “trend toward increased EE”; in test [1] (single 20 nmol/kg dose, up to 72 h, n = 9-10/group), “significantly increased EE response”. For the same compound, the “hypoaminoacidemia and EE in mice fed the HP diet” value in test [1] (single 7.5 and 20 nmol/kg doses, HP diet) was “protected against G108-stimulated hypoaminoacidemia and EE at both doses”. Besides, the food intake entry is recorded as “no effect on food intake” in test [2] (5 nmol/kg s.c. daily); “sustained reduction in food intake” in test [2] (10 nmol/kg s.c. daily, 18 days, n = 6/group); “sustained reduction in food intake” in test [2] (20 nmol/kg s.c. daily, 18 days, n = 6/group). Further, in test [3] (7.5 nmol/kg daily, 20 days), the “body weight on SP diet supplemented with total amino acids (SP + TAA)” value is “prevented G108-mediated weight loss independent of food intake”. Moreover, the “blood glucose over 4 hours after acute administration” value in test [3] (single 7.5 nmol/kg dose, following a transient increase) is listed as “reduction in blood glucose that lasted several hours”.

For the origin of these results see article PMC9729826, “Hypoaminoacidemia underpins glucagon-mediated energy expenditure and weight loss” (Cell Reports Medicine, 2022).
